# Results taken from paper PMC6208284 (Phytotherapy Research, 2018).
# Like-named read-outs stand apart in the source and are kept apart here.
# Experiments:
# [1] = target: ubiquinol:cytochrome c oxidoreductase (complex III), LtP‐Mit (Leishmania tarentolae, UniProt A0A640KA58+A0A640KYQ2+P14548); test: dUQH2:cyt c3+ oxidoreductase (complex III) activity in LtP‐Mit; assay type: biochemical
# Protocol: (§1) To measure the ubiquinol:cyt c ^3+ oxidoreductase (complex III) activity, the reduction of 100 μM cyt c ^3+ at 550 nm using 540 nm as reference was monitored in the presence of the artificial substrate decylubiquinol (dUQH2, 75 μM), which was prepared from dUQ by reduction (Müllebner et al., 2010). The dUQH2:cyt c ^3+ oxidoreductase activities of 40 μg protein/ml of LtP‐Mit or 3.2 μg protein/ml of BH‐SMP were measured in 1 ml of buffer containing 250 mM sucrose, 50 mM KH2PO4, 0.2 mM EDTA (pH 7.2), 2 mM KCN, and 4 mM NaN3. Respective EO compounds were added 50 s after starting the time scan, and the reaction was started after 100 s with dUQH2 and was monitored for additional 150 s. The activity of noninhibited dUQH2:cyt c ^3+ oxidoreductase activity was measured in the presence of the vehicle for the respective inhibitor (DMSO). All inhibitor concentrations were tested in triplicate. The reduction rates for cyt c ^3+ were calculated from the time trace of the absorption difference at 550 − 540 nm (ε550–540 nm = 19 mmol^−1 L cm^−1). Reduction rates in the presence of DMSO (maximum amount that was introduced by test compound stocks) were set to 100%, and the remaining activities in the presence of EO compounds were expressed in %. Three replicates were measured for each concentration.
# [2] = target: NADH:ubiquinone oxidoreductase (complex I), BH‐SMP (Bos taurus, UniProt P03887+P17694+P42026); assay type: biochemical, bovine; conditions: for IC50: read-out: IC50 Complex I BH‐SMP
# Protocol: NADH:ubiquinone oxidoreductase (complex I) and succinate:ubiquinone oxidoreductase (complex II) activities were determined in 96 well‐plates using DCPIP as the electron acceptor. In each well, 200 μl of premix containing buffer (250 mM sucrose, 20 mM triethanolamine, and 1 mM EDTA, pH 7.4), DCPIP (60 μM), BSA (3.5 mg/ml for complex I and 1 mg/ml for complex II), idebenone (50 μM), and LtP‐Mit (complex I 0.17 μg/ml protein and complex II: 51 μg/ml protein) or BH‐SMP (complexes I and II: 8 μg/ml protein) were added. In addition, in the first wells, 97 μl of premix and 3 μl of EO compounds were added. Then six serial 1:3 dilutions were carried out transferring 100 μl in each step. The reaction was started by adding 50 μl of start‐mix per well, giving final concentrations of KCN (1 mM), for complex I:NADH (300 μM) or complex II:succinate (4 mM). After start of the reaction, images of the plates were recorded with a Canon EOS 300D camera (PLReader software, red–green channel) each 10 min for LtP‐Mit and 3 min for BH‐SMP (20 absorbance measurements). For each EO compound, percentage of inhibition was obtained with respect to controls (set to 100%) treated with maximum volume of vehicle (DMSO) introduced by test compound stocks.
# [3] = target: T1, cytochrome bc 1 complex purified from Saccharomyces cerevisiae (Saccharomyces cerevisiae, UniProt P00163+P07143+P08067); test: dUQH2:cyt c3+ oxidoreductase activity of isolated ScY‐bc 1; assay type: biochemical
# T1 construct: endogenous in cells; host or cells: Native complex purified in house from yeast submitochondrial particles (Triton X-100, hydroxyapatite)
# Protocol: (§2) Cytochrome bc 1 complex was obtained from ScY‐SMP and BH‐SMP following published methodology (Geier, Schägger, Brandt, Colson, & von Jagow, 1992) with minor modifications as described below. SMP were resuspended in 1.1% Triton X‐100 and […] phenylmethylsulfonyl fluoride, pH 7.2, and centrifuged for 1 hr at 100,000 g. The bc 1 complex in the sediment was solubilized with 2.2% Triton X‐100, 600 mM NaCl, 10 mM KH2PO4, and 10 mM EDTA, pH 7.2. After centrifugation at 100,000 g for 1 hr, the supernatant was mixed with 50 ml of hydroxyapatite, equilibrated with 0.5% Triton X‐100, 250 mM NaCl, and 100 mM NaHPO4, pH 7.2. After washing the hydroxyapatite with 50 ml of equilibration buffer ([…], 100 mM NaHPO4, and 250 mM NaCl), the bc 1 complexes from ScY‐SMP and BH‐SMP (ScY‐bc 1 and BH‐bc 1, respectively) were eluted from hydroxyapatite with 250 mM KH2PO4 and 0.25% Triton X‐100, pH 7.2, and stored in liquid nitrogen.
# as §1, with “Reduction rates in the presence of DMSO (maximum amount that was introduced by test compound stocks) were set to 100%, and the remaining activities in the presence of EO compounds were expressed in %.” left out, “concentration. […]” for “concentration.”
# [4] = tested on: Leishmania tarentolae promastigotes (LtP); test: Immediate mitochondrial uncoupling in LtP, OxoPlates with oligomycin; assay type: cell-based; conditions: LtP + 5 μM Oligo, OxoPlates
# Protocol: U‐shaped 96‐well OxoPlates (OP96U PreSens, Germany) with integrated fluorescence oxygen sensors were used for parallel LtP experiments. Oxygen concentrations were measured using a PerkinElmer Enspire fluorescence plate reader using excitation wavelength 540 nm and two emission wavelengths (reference dye 590 nm, IRef, and O2‐sensing dye 650 nm, IInd). The oxygen concentration (μM O2) was calculated according to manufacturer's instructions as described previously (Monzote et al., 2016). Measurements with LtP were performed in air‐saturated BHI medium. […] Immediately before the measurement, 150 μl of well‐aerated cell suspensions (13 × 10^7 LtP per ml) was added to the respective wells. Finally, on the top of each well, 50 μl of paraffin oil was layered. Two minutes after mixing, the fluorescence measurements at 27 °C were started, and eight measurements at 5‐min intervals were performed. From the linear part of the O2 decay, the slopes were calculated and corrected for the medium drift for further statistic evaluation. All measurements were performed at least in triplicate. For bioenergetic characterization, the ATP synthase inhibitor Oligo (5 μM) and as positive control CCCP (0.7–5 μM) were used. Respiratory control ratio (RCR) was calculated from respiration rate in the presence of Oligo and compounds/uncoupler divided by the rate in the presence of Oligo.
# [5] = target: T2, cytochrome bc 1 complex purified from Bos taurus (Bos taurus, UniProt P00125+P00157+P13272); test: dUQH2:cyt c3+ oxidoreductase activity of isolated BH‐bc 1; assay type: biochemical
# T2 construct: from tissue; host or cells: Native complex purified in house from bovine heart submitochondrial particles (Triton X-100, hydroxyapatite)
# Protocol: as §2
# as §1, with “Reduction rates in the presence of DMSO (maximum amount that was introduced by test compound stocks) were set to 100%, and the remaining activities in the presence of EO compounds were expressed in %.” left out, “concentration. […]” for “concentration.”
# [6] = mean ± SD, three experiments, read-out: IC50 Complex III LtP‐Mit
# [7] = immediate inhibition, five experiments, read-out: IC50 ± SD ScY‐bc 1
# [8] = immediate inhibition, five experiments, read-out: IC50 ± SD BH‐bc 1
# ubiquinol:cytochrome c oxidoreductase (complex III), LtP‐Mit, sequence (P14548 whole entry): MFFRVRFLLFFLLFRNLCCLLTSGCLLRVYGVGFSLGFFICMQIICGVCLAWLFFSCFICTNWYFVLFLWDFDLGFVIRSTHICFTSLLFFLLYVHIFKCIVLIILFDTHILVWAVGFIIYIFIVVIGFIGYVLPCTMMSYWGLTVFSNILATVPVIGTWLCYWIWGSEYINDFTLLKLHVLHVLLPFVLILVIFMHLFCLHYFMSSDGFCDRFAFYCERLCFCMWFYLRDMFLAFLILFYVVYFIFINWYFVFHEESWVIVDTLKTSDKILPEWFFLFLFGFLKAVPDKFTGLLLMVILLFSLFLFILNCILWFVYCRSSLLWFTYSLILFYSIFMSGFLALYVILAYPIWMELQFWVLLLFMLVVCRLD
# ubiquinol:cytochrome c oxidoreductase (complex III), LtP‐Mit, sequence (A0A640KA58 entry or part of it): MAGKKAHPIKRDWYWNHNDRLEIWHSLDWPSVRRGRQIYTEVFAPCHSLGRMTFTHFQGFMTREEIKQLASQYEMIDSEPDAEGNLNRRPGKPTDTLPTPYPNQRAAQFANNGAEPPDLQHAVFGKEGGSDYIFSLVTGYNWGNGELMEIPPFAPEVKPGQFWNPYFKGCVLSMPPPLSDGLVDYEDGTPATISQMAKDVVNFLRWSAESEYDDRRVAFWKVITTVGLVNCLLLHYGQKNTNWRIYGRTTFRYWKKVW
# ubiquinol:cytochrome c oxidoreductase (complex III), LtP‐Mit, sequence (A0A640KYQ2 entry or part of it): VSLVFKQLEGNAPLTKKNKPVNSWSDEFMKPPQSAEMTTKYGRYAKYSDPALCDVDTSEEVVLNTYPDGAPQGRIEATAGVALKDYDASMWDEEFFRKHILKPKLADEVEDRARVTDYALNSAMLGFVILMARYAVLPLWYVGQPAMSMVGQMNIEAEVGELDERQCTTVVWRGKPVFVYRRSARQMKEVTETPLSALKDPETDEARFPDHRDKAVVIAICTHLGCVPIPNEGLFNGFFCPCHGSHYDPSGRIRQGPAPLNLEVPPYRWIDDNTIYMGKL
SMILES,"IC50 [1, 6]","% of inhibition at highest concentration tested, Complex I BH‐SMP [2]",IC50 [2],"IC50 [3, 7]",Oxygen consumption on top of the inhibition by Oligo ([4]; highest concentration 200 μM),"IC50 [5, 8]",Immediate uncoupling effect (stimulation of Oligo-inhibited oxygen consumption) [4],IC50 [1],IC50 [3],IC50 [5]
"C=C1CC[C@H]2O[C@]2(C)CC[C@@H]2[C@@H]1CC2(C)C [Caryo, caryophyllene oxide]",54.8 ± 4 µM,39.7%,> 100 µM,179 ± 1 µM,totally inhibited the oxygen consumption,197 ± 1 µM,–,–,–,–
"Cc1ccc(C(C)C)cc1O [Car, carvacrol]",150 ± 2.3 µM,13.3%,> 100 µM,941 ± 41 µM,–,421 ± 4 µM,"Neither Car nor Asc (Figure 6a,b) showed an uncoupling effect",–,–,–
"CC(C)C12C=CC(C)(CC1)OO2 (stereo not drawn) [Asc, ascaridole]",–,5.1%,> 100 µM,–,–,–,"Neither Car nor Asc (Figure 6a,b) showed an uncoupling effect",131 ± 3.5 µM,675 ± 6 µM,381 ± 9 µM
